# Experimental data as given in ChEMBL document CHEMBL5649169 (ChemMedChem, 2018).
# What was measured:
# [1] = target: Small ribosomal subunit protein uS2m (Homo sapiens) (UniProt Q9Y399); further: assay method not described here
# [2] = target: DnaJ homolog subfamily C member 13 (Homo sapiens) (UniProt O75165); further: assay method not described here
# [3] = target: DNA polymerase delta subunit 3 (Homo sapiens) (UniProt Q15054); further: assay method not described here
# [4] = target: Conserved oligomeric Golgi complex subunit 5 (Homo sapiens) (UniProt Q9UP83); further: assay method not described here
# [5] = target: HLA class I histocompatibility antigen, B alpha chain (Homo sapiens) (UniProt P01889); further: assay method not described here
# [6] = target: Mitochondrial 2-oxodicarboxylate carrier (Homo sapiens) (UniProt Q9BQT8); further: assay method not described here
# [7] = target: Ubiquitin carboxyl-terminal hydrolase 39 (Homo sapiens) (UniProt Q53GS9); further: assay method not described here
# [8] = target: Ubiquitin carboxyl-terminal hydrolase 9X (Homo sapiens) (UniProt Q93008); further: assay method not described here
# [9] = target: AP-1 complex subunit sigma-1A (Homo sapiens) (UniProt P61966); further: assay method not described here
# [10] = target: Aldo-keto reductase family 1 member D1 (Homo sapiens) (UniProt P51857); further: assay method not described here
# [11] = target: Putative uncharacterized protein ZNF436-AS1 (Homo sapiens) (UniProt Q8NC38); further: assay method not described here
# Chain of Putative uncharacterized protein ZNF436-AS1 (Homo sapiens) (Q8NC38 whole entry): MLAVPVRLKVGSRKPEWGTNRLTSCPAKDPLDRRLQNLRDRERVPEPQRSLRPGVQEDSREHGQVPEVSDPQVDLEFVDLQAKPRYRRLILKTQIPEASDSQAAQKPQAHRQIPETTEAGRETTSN
# [12] = target: PHD finger protein 6 (Homo sapiens) (UniProt Q8IWS0); further: assay method not described here
# [13] = target: Putative protein-lysine deacylase ABHD14B (Homo sapiens) (UniProt Q96IU4); further: assay method not described here
# [14] = target: Cell growth-regulating nucleolar protein (Homo sapiens) (UniProt Q9NX58); further: assay method not described here
# [15] = target: Cytoplasmic FMR1-interacting protein 2 (Homo sapiens) (UniProt Q96F07); further: assay method not described here
# Homo sapiens [16] = species: Homo sapiens; further: assay method not described here
# Rootletin (Homo sapiens) = Rootletin (Homo sapiens) (UniProt Q5TZA2); further: assay method not described here
# Chain of Rootletin (Homo sapiens) (Q5TZA2 whole entry): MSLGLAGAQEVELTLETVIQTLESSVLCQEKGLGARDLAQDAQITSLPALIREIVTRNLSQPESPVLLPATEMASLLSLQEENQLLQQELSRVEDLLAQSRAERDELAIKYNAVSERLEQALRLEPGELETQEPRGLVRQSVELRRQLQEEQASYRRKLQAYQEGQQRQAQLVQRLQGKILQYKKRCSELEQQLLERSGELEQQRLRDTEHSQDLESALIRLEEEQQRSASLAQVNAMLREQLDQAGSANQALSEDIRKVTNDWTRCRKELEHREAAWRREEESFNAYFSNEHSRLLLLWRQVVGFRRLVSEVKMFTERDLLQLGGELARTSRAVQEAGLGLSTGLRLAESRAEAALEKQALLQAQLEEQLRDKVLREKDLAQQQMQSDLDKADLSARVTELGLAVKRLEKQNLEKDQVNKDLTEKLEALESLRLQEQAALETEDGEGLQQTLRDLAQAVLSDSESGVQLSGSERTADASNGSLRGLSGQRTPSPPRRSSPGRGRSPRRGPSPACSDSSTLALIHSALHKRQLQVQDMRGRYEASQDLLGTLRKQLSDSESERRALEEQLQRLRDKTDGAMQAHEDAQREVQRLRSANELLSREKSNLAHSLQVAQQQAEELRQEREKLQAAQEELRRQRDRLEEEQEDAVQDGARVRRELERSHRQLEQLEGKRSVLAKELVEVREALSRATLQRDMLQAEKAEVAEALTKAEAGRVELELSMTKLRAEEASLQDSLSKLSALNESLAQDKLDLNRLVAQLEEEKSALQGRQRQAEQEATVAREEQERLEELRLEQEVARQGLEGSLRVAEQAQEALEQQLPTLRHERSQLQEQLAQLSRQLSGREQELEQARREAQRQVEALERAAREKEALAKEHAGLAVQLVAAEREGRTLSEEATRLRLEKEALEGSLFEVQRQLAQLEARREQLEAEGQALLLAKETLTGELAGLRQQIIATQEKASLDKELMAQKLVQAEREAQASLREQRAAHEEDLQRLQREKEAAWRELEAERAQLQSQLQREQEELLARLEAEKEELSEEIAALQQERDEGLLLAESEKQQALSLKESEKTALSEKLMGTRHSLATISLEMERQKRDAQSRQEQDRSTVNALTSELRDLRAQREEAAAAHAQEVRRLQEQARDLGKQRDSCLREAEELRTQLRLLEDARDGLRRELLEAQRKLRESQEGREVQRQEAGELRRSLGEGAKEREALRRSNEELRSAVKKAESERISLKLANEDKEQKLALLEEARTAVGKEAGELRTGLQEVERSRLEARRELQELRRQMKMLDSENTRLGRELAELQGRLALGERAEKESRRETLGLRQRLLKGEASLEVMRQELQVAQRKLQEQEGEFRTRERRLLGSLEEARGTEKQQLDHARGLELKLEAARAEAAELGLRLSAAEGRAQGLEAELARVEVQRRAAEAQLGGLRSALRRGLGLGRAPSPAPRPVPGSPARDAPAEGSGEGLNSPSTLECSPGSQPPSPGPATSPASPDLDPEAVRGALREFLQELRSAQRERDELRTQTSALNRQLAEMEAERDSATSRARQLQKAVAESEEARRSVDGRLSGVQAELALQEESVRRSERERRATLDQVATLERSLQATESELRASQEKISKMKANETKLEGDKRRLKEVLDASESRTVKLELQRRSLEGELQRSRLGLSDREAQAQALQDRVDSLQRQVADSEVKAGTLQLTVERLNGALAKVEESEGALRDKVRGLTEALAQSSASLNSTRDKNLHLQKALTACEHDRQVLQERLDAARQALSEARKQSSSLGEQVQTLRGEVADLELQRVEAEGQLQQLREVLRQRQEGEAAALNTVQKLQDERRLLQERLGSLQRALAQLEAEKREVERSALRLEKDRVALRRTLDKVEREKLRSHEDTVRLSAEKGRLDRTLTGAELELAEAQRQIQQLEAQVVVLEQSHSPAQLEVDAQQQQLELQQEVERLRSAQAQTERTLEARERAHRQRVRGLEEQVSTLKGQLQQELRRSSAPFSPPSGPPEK
# [17] = target: Tubulin alpha-4A chain (Homo sapiens) (UniProt P68366); further: assay method not described here
# [18] = target: Protein CIP2A (Homo sapiens) (UniProt Q8TCG1); further: assay method not described here
# [19] = target: DnaJ homolog subfamily C member 9 (Homo sapiens) (UniProt Q8WXX5); further: assay method not described here
# Chain of DnaJ homolog subfamily C member 9 (Homo sapiens) (Q8WXX5 whole entry): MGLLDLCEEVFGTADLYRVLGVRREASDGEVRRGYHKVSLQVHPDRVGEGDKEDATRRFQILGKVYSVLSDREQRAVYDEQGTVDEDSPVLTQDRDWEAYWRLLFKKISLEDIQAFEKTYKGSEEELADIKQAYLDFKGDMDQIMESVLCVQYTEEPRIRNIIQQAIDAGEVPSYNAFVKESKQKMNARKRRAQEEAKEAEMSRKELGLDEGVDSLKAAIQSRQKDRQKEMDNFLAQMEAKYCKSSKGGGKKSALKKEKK
# [20] = target: Protein YIF1A (Homo sapiens) (UniProt O95070); further: assay method not described here
# Chain of Protein YIF1A (Homo sapiens) (O95070 whole entry): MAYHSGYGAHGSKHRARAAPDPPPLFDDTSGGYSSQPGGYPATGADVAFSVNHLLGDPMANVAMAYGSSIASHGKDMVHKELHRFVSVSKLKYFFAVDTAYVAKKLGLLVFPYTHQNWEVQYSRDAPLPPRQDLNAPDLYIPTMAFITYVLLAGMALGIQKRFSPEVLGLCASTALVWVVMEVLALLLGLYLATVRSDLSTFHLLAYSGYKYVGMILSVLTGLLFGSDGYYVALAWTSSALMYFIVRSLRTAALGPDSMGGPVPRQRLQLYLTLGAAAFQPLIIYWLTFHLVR
# [21] = target: Phenylalanine--tRNA ligase beta subunit (Homo sapiens) (UniProt Q9NSD9); further: assay method not described here
# [22] = target: Sec1 family domain-containing protein 1 (Homo sapiens) (UniProt Q8WVM8); further: assay method not described here
# [23] = target: Replication factor C subunit 1 (Homo sapiens) (UniProt P35251); further: assay method not described here
# Chain of Replication factor C subunit 1 (Homo sapiens) (P35251 whole entry): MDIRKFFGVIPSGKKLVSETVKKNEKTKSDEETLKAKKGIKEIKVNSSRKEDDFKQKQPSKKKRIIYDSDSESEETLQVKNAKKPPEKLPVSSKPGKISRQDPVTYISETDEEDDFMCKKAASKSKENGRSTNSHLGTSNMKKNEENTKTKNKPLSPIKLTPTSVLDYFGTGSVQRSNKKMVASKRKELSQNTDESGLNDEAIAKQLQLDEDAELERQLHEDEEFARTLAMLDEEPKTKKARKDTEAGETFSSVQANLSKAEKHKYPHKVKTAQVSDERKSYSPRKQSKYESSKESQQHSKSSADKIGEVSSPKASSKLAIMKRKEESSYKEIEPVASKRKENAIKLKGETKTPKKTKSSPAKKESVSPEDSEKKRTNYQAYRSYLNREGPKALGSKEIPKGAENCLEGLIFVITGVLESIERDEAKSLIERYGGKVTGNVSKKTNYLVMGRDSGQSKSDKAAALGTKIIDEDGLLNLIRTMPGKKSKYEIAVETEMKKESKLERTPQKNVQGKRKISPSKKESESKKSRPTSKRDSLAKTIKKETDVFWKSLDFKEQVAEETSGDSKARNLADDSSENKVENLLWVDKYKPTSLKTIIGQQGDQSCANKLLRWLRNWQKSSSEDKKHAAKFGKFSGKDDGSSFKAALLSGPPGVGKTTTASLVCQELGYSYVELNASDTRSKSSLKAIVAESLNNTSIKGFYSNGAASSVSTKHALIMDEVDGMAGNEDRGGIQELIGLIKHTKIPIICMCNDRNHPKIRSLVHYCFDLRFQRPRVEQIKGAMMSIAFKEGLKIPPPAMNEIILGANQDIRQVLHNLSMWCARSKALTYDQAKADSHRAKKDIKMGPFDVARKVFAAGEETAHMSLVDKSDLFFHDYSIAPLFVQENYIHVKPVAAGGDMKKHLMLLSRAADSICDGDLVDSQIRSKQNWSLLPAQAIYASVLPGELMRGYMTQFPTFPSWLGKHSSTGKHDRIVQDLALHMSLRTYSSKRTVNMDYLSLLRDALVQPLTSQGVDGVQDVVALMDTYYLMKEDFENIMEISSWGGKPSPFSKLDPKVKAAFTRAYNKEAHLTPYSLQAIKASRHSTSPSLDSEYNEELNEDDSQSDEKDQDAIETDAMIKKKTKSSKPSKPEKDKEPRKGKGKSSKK
# [24] = target: Arfaptin-2 (Homo sapiens) (UniProt P53365); further: assay method not described here
# [25] = target: Translocon-associated protein subunit delta (Homo sapiens) (UniProt P51571); further: assay method not described here
# [26] = target: Oxysterol-binding protein-related protein 3 (Homo sapiens) (UniProt Q9H4L5); further: assay method not described here
# [27] = target: Serine/threonine-protein kinase LMTK2 (Homo sapiens) (UniProt Q8IWU2); further: assay method not described here
# [28] = target: RNA-binding protein Musashi homolog 2 (Homo sapiens) (UniProt Q96DH6); further: assay method not described here
# [29] = target: Man(5)GlcNAc(2)-PP-dolichol translocation protein RFT1 (Homo sapiens) (UniProt Q96AA3); further: assay method not described here
# [30] = target: Activator of 90 kDa heat shock protein ATPase homolog 1 (Homo sapiens) (UniProt O95433); further: assay method not described here
# Cyclin-I (Homo sapiens) = Cyclin-I (Homo sapiens) (UniProt Q14094); further: assay method not described here
# [31] = target: Activated RNA polymerase II transcriptional coactivator p15 (Homo sapiens) (UniProt P53999); further: assay method not described here
# Homo sapiens [32] = species: Homo sapiens; remark: listed apart in the source; further: assay method not described here
# [33] = target: Transmembrane protein 94 (Homo sapiens) (UniProt Q12767); further: assay method not described here
# [34] = target: ATP-dependent RNA helicase A (Homo sapiens) (UniProt Q08211); further: assay method not described here
# [35] = target: Nucleosome assembly protein 1-like 4 (Homo sapiens) (UniProt Q99733); further: assay method not described here
# [36] = target: E3 ubiquitin-protein ligase RBX1 (Homo sapiens) (UniProt P62877); further: assay method not described here
# [37] = target: Nucleolar RNA helicase 2 (Homo sapiens) (UniProt Q9NR30); further: assay method not described here
# Chain of Nucleolar RNA helicase 2 (Homo sapiens) (Q9NR30 whole entry): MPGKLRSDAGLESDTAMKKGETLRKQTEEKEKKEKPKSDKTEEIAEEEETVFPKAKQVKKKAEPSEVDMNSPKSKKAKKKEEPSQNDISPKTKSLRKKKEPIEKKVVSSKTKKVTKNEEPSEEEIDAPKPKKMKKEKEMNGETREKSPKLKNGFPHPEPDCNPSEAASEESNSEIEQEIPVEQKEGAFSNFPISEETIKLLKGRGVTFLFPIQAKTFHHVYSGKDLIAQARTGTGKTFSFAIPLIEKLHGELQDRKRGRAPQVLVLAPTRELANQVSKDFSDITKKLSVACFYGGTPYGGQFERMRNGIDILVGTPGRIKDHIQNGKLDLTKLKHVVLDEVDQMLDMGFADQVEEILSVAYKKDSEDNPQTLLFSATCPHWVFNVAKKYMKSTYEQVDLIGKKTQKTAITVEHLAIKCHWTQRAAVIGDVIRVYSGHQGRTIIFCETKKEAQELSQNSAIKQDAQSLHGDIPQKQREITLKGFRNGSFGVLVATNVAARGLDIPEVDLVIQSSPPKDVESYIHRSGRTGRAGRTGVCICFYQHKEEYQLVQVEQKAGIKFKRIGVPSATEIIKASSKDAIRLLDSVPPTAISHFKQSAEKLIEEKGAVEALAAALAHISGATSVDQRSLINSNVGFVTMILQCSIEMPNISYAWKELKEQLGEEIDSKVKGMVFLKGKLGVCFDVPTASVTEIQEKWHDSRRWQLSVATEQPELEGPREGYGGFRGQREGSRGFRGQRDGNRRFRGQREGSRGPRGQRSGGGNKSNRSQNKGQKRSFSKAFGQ
# [38] = target: RNA-binding protein 14 (Homo sapiens) (UniProt Q96PK6); further: assay method not described here
# [39] = target: Eukaryotic translation initiation factor 3 subunit D (Homo sapiens) (UniProt O15371); further: assay method not described here
# [40] = target: EKC/KEOPS complex subunit TPRKB (Homo sapiens) (UniProt Q9Y3C4); further: assay method not described here
# [41] = target: Tubulin beta-2B chain (Homo sapiens) (UniProt Q9BVA1); further: assay method not described here
# Chain of Tubulin beta-2B chain (Homo sapiens) (Q9BVA1 whole entry): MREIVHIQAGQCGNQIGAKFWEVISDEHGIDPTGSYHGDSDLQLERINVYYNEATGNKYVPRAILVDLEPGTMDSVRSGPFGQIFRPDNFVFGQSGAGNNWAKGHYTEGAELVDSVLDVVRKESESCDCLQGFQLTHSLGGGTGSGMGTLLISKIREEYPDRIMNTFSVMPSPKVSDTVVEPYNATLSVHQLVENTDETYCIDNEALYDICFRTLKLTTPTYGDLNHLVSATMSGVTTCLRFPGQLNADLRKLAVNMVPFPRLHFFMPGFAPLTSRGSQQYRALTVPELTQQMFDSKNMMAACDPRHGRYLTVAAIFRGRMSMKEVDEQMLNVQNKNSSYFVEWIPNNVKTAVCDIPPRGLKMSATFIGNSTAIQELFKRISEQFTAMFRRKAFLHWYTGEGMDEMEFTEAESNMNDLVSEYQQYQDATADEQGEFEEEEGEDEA
# [42] = target: Dolichol-phosphate mannosyltransferase subunit 1 (Homo sapiens) (UniProt O60762); further: assay method not described here
# [43] = target: La-related protein 1 (Homo sapiens) (UniProt Q6PKG0); further: assay method not described here
# Ephrin type-A receptor 2 = Ephrin type-A receptor 2 (Homo sapiens, UniProt P29317); assay: Inhibition of Nano Luc-fused full length C-terminal EPHA2 (unknown origin) expressed in HEK293T cells using NanoGlo as substrate incubated for 2 hrs in presence of tracer by NanoBRET assay; format: cell-based
compound,measurement,setting,value
Cc1ccc(C(=O)Nc2cccc(C(F)(F)F)c2)cc1Nc1nc(-c2cccnc2)nc2c1cnn2C,ED50,[1],4.88 µM
same,ED50,[2],10.3 µM
same,ED50,[3],0.00157 µM
same,ED50,[4],7.29 µM
same,ED50,[5],0.00982 µM
same,ED50,[6],120 µM
same,ED50,[7],95.8 µM
same,ED50,[8],0.0603 µM
same,ED50,[9],0.163 µM
same,ED50,[10],0.0719 µM
same,ED50,[11],8.64 µM
same,ED50,[12],2.01 µM
same,ED50,[13],5470 µM
same,ED50,[14],4.37 µM
same,ED50,[15],6.95 µM
same,ED50,Homo sapiens [16],0.723 µM
same,ED50,Rootletin (Homo sapiens),0.115 µM
same,ED50,[17],0.0122 µM
same,ED50,[18],12.6 µM
same,ED50,[19],8.8 µM
same,ED50,[20],0.03 µM
same,ED50,[21],0.0971 µM
same,ED50,[22],0.171 µM
same,ED50,[23],0.132 µM
same,ED50,[24],211 µM
same,ED50,[25],217 µM
same,ED50,[26],0.946 µM
same,ED50,[27],2.39 µM
same,ED50,[28],0.00124 µM
same,ED50,[29],1.13 µM
same,ED50,[30],44.8 µM
same,ED50,Cyclin-I (Homo sapiens),26.5 µM
same,ED50,[31],1090 µM
same,ED50,Homo sapiens [32],15.7 µM
same,ED50,[33],0.0776 µM
same,ED50,[34],0.112 µM
same,ED50,[35],9.2 µM
same,ED50,[36],2.98 µM
same,ED50,[37],0.384 µM
same,ED50,[38],12.4 µM
Cc1ccc(C(=O)Nc2cccc(C(F)(F)F)c2)cc1Nc1nc(-c2cccnc2)nc2nn(C)cc12,ED50,[39],0.0504 µM
same,ED50,[40],0.55 µM
same,ED50,[41],0.014 µM
same,ED50,[42],2.9 µM
same,ED50,[43],1.69 µM
same,IC50,Ephrin type-A receptor 2,0.163 µM
